According to patent publication US20130109734A1 (Metabolex, Inc., priority 2010, published 2013):

These compounds were tested against T1, human GPR120 (Homo sapiens, UniProt Q5NUL3) (assay: Intracellular Ca2+ assay in human GPR120 stable cell line (HEK293 co-expressing Gqi5), Flexstation). Conditions: % activity at 5 μM compared to the maximal activity of GW9508 at 6.7 μM (=100%); human GPR120 cells, Ca2+ fluorescence.
T1 construct: host or cells: HEK293 cells co-expressing Gqi5
T1 sequence (Q5NUL3 1-361): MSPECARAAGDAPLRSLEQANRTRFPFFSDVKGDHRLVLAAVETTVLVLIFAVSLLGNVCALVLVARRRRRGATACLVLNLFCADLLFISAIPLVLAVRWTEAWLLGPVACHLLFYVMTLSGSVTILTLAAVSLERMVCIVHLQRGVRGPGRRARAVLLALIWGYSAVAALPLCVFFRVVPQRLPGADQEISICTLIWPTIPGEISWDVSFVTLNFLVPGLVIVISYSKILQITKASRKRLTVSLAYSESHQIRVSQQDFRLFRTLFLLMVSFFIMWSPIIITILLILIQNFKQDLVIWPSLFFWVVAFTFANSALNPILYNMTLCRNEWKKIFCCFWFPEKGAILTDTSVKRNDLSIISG
Assay type: cell-based
Experimental: Human GPR120 stable cell line was purchased from Multispan Inc (26219 Eden Landing Road, Hayward, Calif. 94545). This GPR120 cell line was generated in HEK293 cells co-expressing Gqi5. In this cell line, the Flag epitope tag (DYKDDDDK) was fused to the amino terminus of human GPR120 protein.
The concentration of intracellular Ca^2+ was measured as described below. Human GPR120 cells were plated in 96 well plates (Poly-D-Lysine coated black/clear Plate, Greiner Bio-One) at 70,000 cells per well and cultured overnight in conditions of 37° C. and 5% CO2. A Ca^2+assay dye stock solution was prepared by adding 10 mL of assay buffer (HBSS/20 mM HEPES, pH 7.4) to FLIPR Calcium 4 Assay Bulk Kit (Molecular Devices). The 10 mL of Ca^2+ assay dye solution was prepared by further diluting 0.5 mL of Ca^2+ assay dye stock solution with 10 mL of assay buffer. The medium of the cells was removed and immediately 100 μL of the Ca^2+ assay dye solution was dispensed into each well followed by incubation at 37° C. and 5% CO2 for 50 minutes to incorporate the Ca^2+ dye into the cells. The cell plate was then placed in the Flexstation (Molecular Devices) for 20 minutes at 37° C. Compounds were dissolved in 100% DMSO and diluted to desired concentrations with assay buffer and placed in the Flexstation simultaneously with the cell plate for 20 minute incubation at 37° C. prior to reading. Fluorescence intensity was measured immediately following compound addition (25 μL/well) on the Flexstation at an excitation wavelength of 485 nm and an emission wavelength of 525 with 515 nm auto cutoff. The resulting increase in fluorescence intensities corresponds to increases in intracellular Ca^2+ levels.
Compounds were dissolved in 100% DMSO to a concentration of 20 mM to provide stock solutions. To determine activity against human GPR120, compounds were added with human GPR120 stably expressing cells (described above), at eight desired concentrations ranging from 0.00001 to 20 μM, in 96 well plates and fluorescence intensities were measured for 90 seconds with 2-second intervals. An EC50 value (concentration of the GPR120 agonist where 50% of the agonist's maximal activity is observed) was calculated using the changes (Max−Min) of fluorescence intensity.
To determine percent activity for a tested compound, the fluorescence intensity value obtained at a particular concentration were compared to the maximal fluorescence intensity value obtained for reference compound GW9508 (4-[[(3-phenoxyphenyl)methyl]amino]benzene propanoic acid; British Journal of Pharmacology 2006 148, 619-628) or the compound of Example 25. When GW9508 was used as the reference compound, the maximal activity of GW9508 at 6.7 μM was designated as 100% activity. When the compound of Example 25 was used as the reference compound, the maximal activity of the compound of Example 25 at 2.5 μM was designated as 100% activity. Typically, the GW9508 activity reached a maximum at a concentration of approximately 6.7 μM and typically the compound of Example 25 reached a maximum activity at approximately 2.5 μM.
With `CC(Cc1cc(F)c(OCc2cc(Cl)cc3c2OC(C)(C)C3)c(F)c1)C(=O)O` (centres unmarked) [Example 38, 3-(4-((5-chloro-2,2-dimethyl-2,3-dihydrobenzofuran-7-yl)methoxy)-3,5-difluorophenyl)-2-methylpropanoic acid] the “% Activity (GW9508 Reference Compound)” value was 83.43%. `CC(Cc1cc(F)c(OCc2cccc3c2OC(C)C3C)c(F)c1)C(=O)O` (centres unmarked) [Example 40, 3-(4-((2,3-dimethyl-2,3-dihydrobenzofuran-7-yl)methoxy)-3,5-difluorophenyl)-2-methylpropanoic acid] was tested, and the “% Activity (GW9508 Reference Compound)” value was 95.33%. In the case of `CC1(C)Cc2cc(Cl)cc(COc3c(F)cc(C4CC4CC(=O)O)cc3F)c2O1` (centres unmarked) [Example 41, 2-(2-(4-((5-chloro-2,2-dimethyl-2,3-dihydrobenzofuran-7-yl)methoxy)-3,5-difluorophenyl)cyclopropyl)acetic acid], the “% Activity (GW9508 Reference Compound)” value is reported as 116.46%. `CC(Cc1cc(F)c(OCc2c(F)c(F)cc3c2OC(C)(C)C3)c(F)c1)C(=O)O` (centres unmarked) [Example 42, 3-(4-((5,6-difluoro-2,2-dimethyl-2,3-dihydrobenzofuran-7-yl)methoxy)-3,5-difluorophenyl)-2-methylpropanoic acid] was tested, and the “% Activity (GW9508 Reference Compound)” value was 140.94%. For `CC(Cc1ccc(COc2cccc3c2OC(C)(C)C3)c(F)c1)C(=O)O` (centres unmarked) [Example 44, 3-(4-(((2,2-dimethyl-2,3-dihydrobenzofuran-7-yl)oxy)methyl)-3-fluorophenyl)-2-methylpropanoic acid], the “% Activity (GW9508 Reference Compound)” value was 157.14%. For `CC(Cc1ccc(OCc2cc(F)cc3c2OCOC3)cc1)C(=O)O` (centres unmarked) [Example 45, 3-(4-((6-fluoro-4H-benzo[d][1,3]dioxin-8-yl)methoxy)phenyl)-2-methylpropanoic acid], the “% Activity (GW9508 Reference Compound)” value was 79.58%. With `Cc1cc(OCc2cc(F)cc3c2OC(C)(C)C3)ccc1CCC(=O)O` [Example 46, 3-(4-((5-fluoro-2,2-dimethyl-2,3-dihydrobenzofuran-7-yl)methoxy)-2-methylphenyl)propanoic acid] the “% Activity (GW9508 Reference Compound)” value was 113.55%. In the case of `CC1(C)Cc2cc(F)cc(COc3ccc(CCC(=O)O)c(Cl)c3)c2O1` [Example 47, 3-(2-chloro-4-((5-fluoro-2,2-dimethyl-2,3-dihydrobenzofuran-7-yl)methoxy)phenyl)propanoic acid], the “% Activity (GW9508 Reference Compound)” value is reported as 111.18%. In the case of `COc1cc(OCc2cc(F)cc3c2OC(C)(C)C3)ccc1CCC(=O)O` [Example 50, 3-(4-((5-fluoro-2,2-dimethyl-2,3-dihydrobenzofuran-7-yl)methoxy)-2-methoxyphenyl)propanoic acid], the “% Activity (GW9508 Reference Compound)” value is reported as 129.78%. For `CC1(C)Cc2cc(Cl)cc(COc3ccc(CCC(=O)O)c(F)c3)c2O1` [Example 53, 3-(4-((5-chloro-2,2-dimethyl-2,3-dihydrobenzofuran-7-yl)methoxy)-2-fluorophenyl)-propanoic acid], the “% Activity (GW9508 Reference Compound)” value was 143.19%. With `CC1(C)Cc2cc(Cl)cc(COc3cc(F)c(CCC(=O)O)c(F)c3)c2O1` [Example 54, 3-(4-((5-chloro-2,2-dimethyl-2,3-dihydrobenzofuran-7-yl)methoxy)-2,6-difluorophenyl)propanoic acid] the “% Activity (GW9508 Reference Compound)” value was 138.97%. For `COc1cc(CCC(=O)O)c(Br)cc1OCc1cc(F)cc2c1OC(C)(C)C2` [Example 56, 3-(2-bromo-4-((5-fluoro-2,2-dimethyl-2,3-dihydrobenzofuran-7-yl)methoxy)-5-methoxyphenyl)propanoic acid], the “% Activity (GW9508 Reference Compound)” value was 108.51%. In the case of `CC1(C)Cc2cc(Cl)cc(COc3ccc(SCC(=O)O)cc3)c2O1` [Example 59, 2-((4-((5-chloro-2,2-dimethyl-2,3-dihydrobenzofuran-7-yl)methoxy)phenyl)thio)-acetic acid], the “% Activity (GW9508 Reference Compound)” value is reported as 117.58%. `CC1(C)Cc2cc(F)cc(COc3ccc(CCC(=O)O)c4c3CCC4)c2O1` [Example 63, 3-(7-((5-fluoro-2,2-dimethyl-2,3-dihydrobenzofuran-7-yl)methoxy)-2,3-dihydro-1H-inden-4-yl)propanoic acid] was tested, and the “% Activity (GW9508 Reference Compound)” value was 95.03%. With `C[C@H](Cc1ccc(OCc2cc(F)cc3c2OC(C)(C)C3)cc1)C(=O)O` [Example 65, (R)-3-(4-((5-fluoro-2,2-dimethyl-2,3-dihydrobenzofuran-7-yl)methoxy)phenyl)-2-methylpropanoic acid] the “% Activity (GW9508 Reference Compound)” value was 141.04%. `CC(Cc1ccc(NCc2cc(F)cc3c2OC(C)(C)C3)cc1)C(=O)O` (centres unmarked) [Example 67, 3-(4-(((5-fluoro-2,2-dimethyl-2,3-dihydrobenzofuran-7-yl)methyl)amino)phenyl)-2-methylpropanoic acid] was tested, and the “% Activity (GW9508 Reference Compound)” value was 141.82%. With `CC(Cc1ccc(NC(=O)c2cc(F)cc3c2OC(C)(C)C3)cc1)C(=O)O` (centres unmarked) [Example 68, 3-(4-(5-fluoro-2,2-dimethyl-2,3-dihydrobenzofuran-7-carboxamido)phenyl)-2-methylpropanoic acid] the “% Activity (GW9508 Reference Compound)” value was 69.03%. In the case of `CCOC(Cc1cc(F)c(OCc2cc(F)cc3c2OC(C)(C)C3)c(F)c1)C(=O)O` (centres unmarked) [Example 69, 3-(3,5-difluoro-4-((5-fluoro-2,2-dimethyl-2,3-dihydrobenzofuran-7-yl)methoxy)phenyl)-2-ethoxypropanoic acid], the “% Activity (GW9508 Reference Compound)” value is reported as 78.46%. `CC1(C)Cc2cc(F)cc(CCc3ccc(OCC(=O)O)cc3)c2O1` [Example 70, 2-(4-(2-(5-fluoro-2,2-dimethyl-2,3-dihydrobenzofuran-7-yl)ethyl)phenoxy)acetic acid] was tested, and the “% Activity (GW9508 Reference Compound)” value was 117.72%. With `CC1(C)Cc2cc(Cl)cc(COc3ccc(CCC(=O)O)c(-c4ccccc4)c3)c2O1` [Example 71, 3-(5-((5-chloro-2,2-dimethyl-2,3-dihydrobenzofuran-7-yl)methoxy)-[1,1′-biphenyl]-2-yl)propanoic acid] the “% Activity (GW9508 Reference Compound)” value was 133.8%. With `CCCc1cc(OCc2cc(Cl)cc3c2OC(C)(C)C3)c(F)cc1CCC(=O)O` [Example 73, 3-(4-((5-chloro-2,2-dimethyl-2,3-dihydrobenzofuran-7-yl)methoxy)-5-fluoro-2-propylphenyl)propanoic acid] the “% Activity (GW9508 Reference Compound)” value was 114.85%. With `CC(Cc1ccc(OCc2cc(Cl)cc3c2OC(C)(C)C3=O)c(F)c1)C(=O)O` (centres unmarked) [Example 77, 3-(4-((5-chloro-2,2-dimethyl-3-oxo-2,3-dihydrobenzofuran-7-yl)methoxy)-3-fluorophenyl)-2-methylpropanoic acid] the “% Activity (GW9508 Reference Compound)” value was 109.62%. For `CC(Cc1ccc(OCc2cc(Cl)cc3c2OC(C)(C)C3=O)c(C(F)(F)F)c1)C(=O)O` (centres unmarked) [Example 79, 3-(4-((5-chloro-2,2-dimethyl-3-oxo-2,3-dihydrobenzofuran-7-yl)methoxy)-3-(trifluoromethyl)phenyl)-2-methylpropanoic acid], the “% Activity (GW9508 Reference Compound)” value was 3.85%. With `CC(Cc1ccc(OCc2cc(Cl)cc3c2OC(C)(C)C3O)c(F)c1)C(=O)O` (centres unmarked) [Example 80, 3-(4-((5-chloro-3-hydroxy-2,2-dimethyl-2,3-dihydrobenzofuran-7-yl)methoxy)-3-fluorophenyl)-2-methylpropanoic acid] the “% Activity (GW9508 Reference Compound)” value was 86.25%. With `CC(Cc1ccc(OCc2cc(-c3ccc(Cl)cc3)cc3c2OC(C)(C)C3)cc1)C(=O)O` (centres unmarked) [Example 82, 3-(4-((5-(4-chlorophenyl)-2,2-dimethyl-2,3-dihydrobenzofuran-7-yl)methoxy)phenyl)-2-methylpropanoic acid] the “% Activity (GW9508 Reference Compound)” value was 24%.

Same assay, conditions: human GPR120 stably expressing cells, Ca2+ fluorescence (Max-Min), eight concentrations 0.00001 to 20 μM
In the case of `CC(Cc1cc(F)c(OCc2cccc3c2OC(C)C3C)c(F)c1)C(=O)O` (centres unmarked) [Example 40, 3-(4-((2,3-dimethyl-2,3-dihydrobenzofuran-7-yl)methoxy)-3,5-difluorophenyl)-2-methylpropanoic acid], the EC50 is reported as over 10 µM. `CC1(C)Cc2cc(Cl)cc(COc3c(F)cc(C4CC4CC(=O)O)cc3F)c2O1` (centres unmarked) [Example 41, 2-(2-(4-((5-chloro-2,2-dimethyl-2,3-dihydrobenzofuran-7-yl)methoxy)-3,5-difluorophenyl)cyclopropyl)acetic acid] was tested, and the EC50 was over 10 µM. Work on `CC(Cc1ccc(NC(=O)c2cc(F)cc3c2OC(C)(C)C3)cc1)C(=O)O` (centres unmarked) [Example 68, 3-(4-(5-fluoro-2,2-dimethyl-2,3-dihydrobenzofuran-7-carboxamido)phenyl)-2-methylpropanoic acid] yielded an EC50 of over 10 µM. `CCOC(Cc1cc(F)c(OCc2cc(F)cc3c2OC(C)(C)C3)c(F)c1)C(=O)O` (centres unmarked) [Example 69, 3-(3,5-difluoro-4-((5-fluoro-2,2-dimethyl-2,3-dihydrobenzofuran-7-yl)methoxy)phenyl)-2-ethoxypropanoic acid] was tested, and the EC50 was over 10 µM.
